Test results published in US20250197453A1, “COMPOSITION COMPRISING TAT PEPTIDE VARIANT AS ACTIVE INGREDIENT FOR PREVENTING OR TREATING METABOLIC DISEASES” (priority 2021, published 2025).

Test system: 3T3-L1 cells
Assay: PEGn-TAT variants: inhibition of differentiation of 3T3-L1 cells and of fatty acid synthesis
Type: cell-based
Description: 3T3-L1 cells were cultured in DMEM (high glucose, pyruvate, GIBCO CAT #11995) supplemented with 10% calf serum and 1% penicillin-streptomycin (P/S). Cells were seeded in a 6-well culture plate, and when the cells reached a confluency of 60 to 70%, MDI, a differentiation initiation medium, was added at a 1× concentration. At this time, the cells were treated with each of TAT-38, X-FAT8, and PEGn-TAT at a concentration of 1 to 10 μM. After 2 days, MDI was replaced with insulin, and each of AT-38, X-FAT8, and PEGn-TAT was added to fresh medium every day during culture. From day 4, culture was continued for 4 days in maintenance medium. Thereafter, the cell status was checked and recorded every day. When necessary, the cells were fixed and the amount of fatty acids was analyzed by Oil-O red staining.

TACTNCYCAKCCFHCQVC-(Peg)7-RAKRRQRRR [PEG7-TAT]
differentiation inhibitory ability and intracellular lipid accumulation, 3T3-L1 cells (4 days (FIG. 12A) and 6 days (FIG. 12B) after the initiation of differentiation): very high | differentiation inhibitory ability and intracellular lipid accumulation, 3T3-L1 cells (4 days after the initiation of differentiation, FIG. 11A): very high | differentiation inhibitory ability, 3T3-L1 cells (6 days after the induction of differentiation, FIG. 11B): still significant | differentiation and intracellular lipid accumulation, 3T3-L1 cells, Oil-O-Red staining (8 days after the initiation of differentiation, FIG. 13): strong inhibition of differentiation and inhibition of intracellular lipid accumulation
